Tests used:
2.2.15 cells = experiment: neutral red dye uptake cytotoxicity; type: cell-based; details: 9 days treatment, read-out: 50% Cell Death CC50
Protocol: Further, the antiviral effect of any compound must be measured against its toxicity. Cytotoxicity is measured by the neutral red uptake method using the same cells used for antiviral activity.
2b. Compounds were prepared for toxicity treatment as follows: For each compound, a total of 4 concentrations were examined. This required 9 sets of 4 sterile, 1.1 ml minitubes (36 tubes per compound). Into the first tube of each set, sufficient compound was aliquoted to make up 465 μl of the highest test concentration. The other tubes were left empty. The tubes were covered with the rack lids, and stored at −20° C. or at an appropriate temperature. Tubes for the last day of treatment for toxicity testing contain the same amount of compound as used the previous days (not 3xas for the antiviral assays).
3b. The cytotoxicity of test compounds was analyzed in a 3.3-fold dilution series as follows. […] (155 μl×3) of RP2 were added to the first tube (containing the aliquot of compound) and 310 μL (155 μl×2) RP2 to each of the 3 remaining tubes. 150 μl of test compound-containing medium were serially transferred from the first tube to the other 3 tubes.
5. A single plate was used for the toxicity treatments for each test compound (up to 7 compounds per plates since the top row were reserved for untreated cells on every toxicity plate). To initiate the treatments, the culture medium was removed, and 100 μl of each dilution of every compound were added to each of 3 wells using a configuration similar to that shown above for the antiviral treatments. The untreated cells received 100 μl RP2 per well. Treatment was repeated daily for 9 days.
The antiviral effect of any compound was evaluated relative to its toxicity. Cells were seeded and treated following the guidelines above, after which a neutral red dye uptake assay was performed to assess toxicity as described below. Other assays of cytotoxicity (e.g., MTT) can be substituted for the procedure described below. Note that this procedure assesses toxicity under culture and treatment conditions which are identical to those used for the antiviral analyses, thereby permitting a determination as to whether the reduction in virus production due to a specific antiviral effect or due to a cytotoxic effect on the host cell. Since the cultures, by necessity, are at confluence, the cytotoxic effects of the test compounds will probably be reduced relative to the cytotoxic effects that would be expected for actively dividing cells.
1. Cultures were treated with test compounds on the designated toxicity plates as described above.
2. The culture medium was carefully removed 24 hours following the 9th day of treatment. The monolayer was fully removed in the top left three wells (row A, col. 1-3). These wells were used as “blanks” for the plate reader.
3. 100 μl DPBS (containing 0.01% neutral red dye) were added to each well, including the empty wells, and Incubated in the tissue culture incubator for 30 minutes.
4. The dye was removed carefully and gently, using a multichannel pipetman since the monolayers can become fragile after incubation with neutral red dye. 200 μl DPBS were added to all the wells taking care not to displace the monolayers. The DPBS was removed and 100 μl 50% EtOH/1% glacial acetic acid (in H2O) were added to each well. The plates were mixed for 15 minutes on an orbital platform shaker (120-150 RPM) to allow for full extraction of the dye from the cells.
5. Optical absorbance at 510 nm was read in an ELISA type plate reader, using the 3 empty wells to set the background. An average absorbance value was calculated for the 9 untreated cultures on a plate, and the absorbance of dye for the treated cultures on the same plate was expressed as a percentage of that value. This procedure was repeated for each individual plate. […]

HBV = experiment: antiviral assay in 2.2.15 cells producing HBV (virion DNA dot blot); type: cell-based, Hepatitis B virus; details: extra-cellular virus reduced by 50%; 2.2.15 cells, 9 days treatment; read-out: Antiviral EC50
Excerpt: Several cell lines and cell culture assays have been developed to identify potential therapeutics effective against chronic HBV infection. One of these cell lines, 2.2.15, has been used in a standardized assay that has repeatedly proven to be an accurate model of chronic cellular HBV replication and a predictive model of antiviral response for chronic hepadnaviral infection in vivo. 2.2.15 cells contain copies of the complete HBV genome integrated into the cell's genome, and 2.2.15 cells are not susceptible to infection by HBV. (Sells, M. A. et al., J. Virol. 62 (8): 2836-2844 (1988)). These cells express HBV genes producing complete HBV particles capable of infecting chimpanzees (Acs, G. et al., Proc. Natl. Acad. Sci. USA 84 (13): 4641-4644 (1987)). Briefly, 2.2.15 cells are cultured and pretreated with a test compound for about 9 days, at which point the media are harvested and subjected to dot-blot hybridization to detect HBV virion DNA.
The antiviral activity of the compounds of the present invention is measured by the methods described in Korba and Gering, Antiviral Res. 19: 55-70 (1992).
This assay format is well suited to the screening of test compounds for potential antiviral activity. The assay provides a threshold assessment of antiviral activity by measuring (i) the levels of HBV virion release from the cells and (ii) cytotoxicity. Two rows of cells were used for each compound, and 4 rows for the assay controls (two for untreated, and two for positive antiviral control, e.g., 3TC). After incubating in the presence of test compound for 9 days, the media were harvested, transferred to 96-well U-bottom plates, and centrifuged. The supernatants were transferred to tubes for dot blot hybridization analysis of HBV virion DNA. The medium was aspirated off of the toxicity plates and discarded. Toxicity plates were then incubated with neutral red dye (MTT can also be used if preferred), washed with DPBS, developed with an acetic acid-ethanol solution, and assayed in a plate reader.
1. 2.2.15 cells were seeded into 96-well, flat bottom tissue culture plates as described above. Duplicate plates were used for the antiviral treatments for each test compound (up to 8 compounds per pair of plates); after three to four days, cells were confluent and medium was yellow in color; the medium was removed and replaced with 100 μl RP2 24 hours before the beginning of drug treatment.
i) For each compound, a total of 4 concentrations were examined; this required 9 sets of 4 sterile, 1.1 ml minitubes (36 tubes per compound). Into the first tube of each set, sufficient compound was aliquoted to make up 700 μl (for 10-fold dilution series) or 980 μl (for 3.3-fold dilution series) of the highest test concentration; the other tubes were left empty.
i) For a 10-fold dilution series: to the first (compound containing) tube was added 700 μl (175 μl×4). 630 μl (210 μl×3) RP2 culture medium was added to the remaining 3 tubes. The first tube was mixed by pipeting up and down with a pipetman (a multichannel pipetman permits the simultaneous processing of multiple compounds). 70 μl of test compound-containing medium were serially transferred from the first tube to the other 3 tubes, taking care to thoroughly mix each tube before transferring medium;
b) 100 μl of each dilution of every compound was added to each of 6 wells (3 wells per plate) using the configuration listed below as an example. The lowest concentration was added first, and the same tips were used to add the higher concentrations. The untreated cells received 100 μl RP2 per well (untreated cells have to be carried on only one pair of the antiviral assay plates).
c) Treatments were repeated daily for 9 days. For the last day of treatment, and additional 200 μl RP2 were added to each well of the antiviral assay plates after the wells are treated with the test compounds (a total of 300 μl medium per well).
6. […]

| Compound | CC50 (2.2.15 cells) | EC50 (HBV) |
| --- | --- | --- |
| Oc1ccc(Br)cc1C=NNc1nc(Nc2cccc(Br)c2)nc(N2CCOCC2)n1 [Compound 232] | 190 µM | > 100 µM |
| CNc1nc(NN=Cc2cc(Cl)ccc2O)nc(Nc2ccccc2)n1 [Compound 245] | 137 µM | > 100 µM |
| Oc1ccc(Br)cc1C=NNc1nc(Nc2cccc(C(F)(F)F)c2)nc(N2CCOCC2)n1 [Compound 246] | 141 µM | 5.2 µM |
| FC(F)(F)c1cccc(Nc2nc(Nc3cccc(Cl)c3)nc(N3CCOCC3)n2)c1 [Compound 247] | 136 µM | > 100 µM |
| Cc1ccc(Nc2nc(NCc3cc(F)ccc3F)nc(Nc3ccc([N+](=O)[O-])cc3)n2)cc1C [Compound 248] | 135 µM | > 100 µM |
| Cc1ccc(Nc2nc(NN=Cc3ccc(Cl)cc3)nc(N3CCOCC3)n2)cc1 [Compound 249] | 134 µM | > 100 µM |
| Cc1ccc(Nc2nc(NNC(=O)c3ccccc3O)nc(Oc3ccc([N+](=O)[O-])cc3)n2)cc1C [Compound 250] | 123 µM | > 100 µM |
| Cc1ccc(Nc2nc(Nc3cccc(C(F)(F)F)c3)nc(N3CCOCC3)n2)cc1C [Compound 251] | 96 µM | > 100 µM |
| COc1ccc(Nc2nc(NCCc3ccccc3)nc(N(C)C)n2)cc1OC [Compound 252] | 61 µM | 9.5 µM |
| CNc1nc(NN=Cc2ccccc2C(F)(F)F)nc(Nc2cccc(C(F)(F)F)c2)n1 [Compound 253] | 193 µM | 18 µM |

Reference: patent publication US6335339B1, “Triazine antiviral compounds” (Scriptgen Pharmaceuticals, Inc., priority 1998, dated 2002)
